Reference: patent US20260042759A1, “INHIBITOR CONTAINING BICYCLIC DERIVATIVE, PREPARATION METHOD THEREFOR AND USE THEREOF” (SHANGHAI HANSOH BIOMEDICAL CO., LTD., priority 2019, published 2026)

Experiments:
[1] = test system: phosphorylation of ERK, a downstream signal factor of TT cells; assay: ERK phosphorylation in TT cells (Western Blot); type: cell-based, human; settings: for inhibition of the phosphorylation level of ERK in TT cells, overall: 3.7-300 nM, 2 hours
Experimental: In this experiment, the inhibitory effect of compounds on the phosphorylation level of ERK, a downstream signaling factor in TT cells, was measured by Western Blot method. When TT cells were cultured to the appropriate fusion degree, the cells were collected and adjusted to a suitable cell concentration using complete medium, the cell suspension was spread in a 24-well plate, 1 mL per well, and placed in a 37° C., 5% CO2 incubator overnight, and compound dilutions of different concentrations (3.7 nM, 11.1 nM, 33.3 nM, 100 nM, 300 nM) were added at 37° C. and acted for 2 hours; the cell supernatant was aspirated, washed one time with PBS, and the proteins were collected with lysate; after protein denaturation, Western blot experiments were performed: performing protein electrophoresis at 120V for approximately 75 minutes, followed by 45 minutes of transfer to PVDF membranes at 10V with a semi-dry transfer instrument, enclosing at 5% BSA for 1 hour at room temperature, and then PVDF membranes were cut into strips of appropriate size and incubated with prepared antibody dilutions overnight at 4° C. and washed 6 times with TBST, followed by imaging with goat anti-mouse secondary antibody and sheep anti-rabbit secondary antibody for 1 hour at room temperature, and the membrane was washed 6 times with TBST for imaging in the Biorad ChemiDoc™ MP Imaging System.
The inhibitory effect of compounds on ERK phosphorylation levels in TT cells at different concentrations was determined by detecting protein bands.

[2] = test system: TT cells (MTC, RET C634W); assay: TT cell proliferation (CellTiter-Glo); type: cell-based, human
Experimental: When TT cells were cultured to the appropriate fusion level, TT cells were collected, and the cells were adjusted to the appropriate cell concentration using complete medium, and the cell suspension was spread in a 96-well plate, 90 µL per well, and placed in a 37° C., 5% CO2 incubator overnight; and compound solutions of different concentrations were prepared using DMSO and culture medium; and a solvent control was set, the compound solution was added to a 96-well plate, 10 µL per well, at 37° C. in a 5% CO2 incubator for 72 hours; CellTiter-Glo solution was added thereto and the mixture was mixed well by shaking, incubated for 10 min in the dark, and read by BioTek Synergy H1 microplate reader.
The luminescence signal values were used to calculate the inhibition rate, the concentration and the inhibition rate were fitted to a nonlinear regression curve using Graphpad Prism software.

RET = target: T1, RET (Homo sapiens, UniProt P07949); assay: HTRF kinase assay, RET wild-type; type: biochemical; settings: ATP at Km
T1 construct: purchased Carna 08-159
T1 sequence (P07949 29-1114): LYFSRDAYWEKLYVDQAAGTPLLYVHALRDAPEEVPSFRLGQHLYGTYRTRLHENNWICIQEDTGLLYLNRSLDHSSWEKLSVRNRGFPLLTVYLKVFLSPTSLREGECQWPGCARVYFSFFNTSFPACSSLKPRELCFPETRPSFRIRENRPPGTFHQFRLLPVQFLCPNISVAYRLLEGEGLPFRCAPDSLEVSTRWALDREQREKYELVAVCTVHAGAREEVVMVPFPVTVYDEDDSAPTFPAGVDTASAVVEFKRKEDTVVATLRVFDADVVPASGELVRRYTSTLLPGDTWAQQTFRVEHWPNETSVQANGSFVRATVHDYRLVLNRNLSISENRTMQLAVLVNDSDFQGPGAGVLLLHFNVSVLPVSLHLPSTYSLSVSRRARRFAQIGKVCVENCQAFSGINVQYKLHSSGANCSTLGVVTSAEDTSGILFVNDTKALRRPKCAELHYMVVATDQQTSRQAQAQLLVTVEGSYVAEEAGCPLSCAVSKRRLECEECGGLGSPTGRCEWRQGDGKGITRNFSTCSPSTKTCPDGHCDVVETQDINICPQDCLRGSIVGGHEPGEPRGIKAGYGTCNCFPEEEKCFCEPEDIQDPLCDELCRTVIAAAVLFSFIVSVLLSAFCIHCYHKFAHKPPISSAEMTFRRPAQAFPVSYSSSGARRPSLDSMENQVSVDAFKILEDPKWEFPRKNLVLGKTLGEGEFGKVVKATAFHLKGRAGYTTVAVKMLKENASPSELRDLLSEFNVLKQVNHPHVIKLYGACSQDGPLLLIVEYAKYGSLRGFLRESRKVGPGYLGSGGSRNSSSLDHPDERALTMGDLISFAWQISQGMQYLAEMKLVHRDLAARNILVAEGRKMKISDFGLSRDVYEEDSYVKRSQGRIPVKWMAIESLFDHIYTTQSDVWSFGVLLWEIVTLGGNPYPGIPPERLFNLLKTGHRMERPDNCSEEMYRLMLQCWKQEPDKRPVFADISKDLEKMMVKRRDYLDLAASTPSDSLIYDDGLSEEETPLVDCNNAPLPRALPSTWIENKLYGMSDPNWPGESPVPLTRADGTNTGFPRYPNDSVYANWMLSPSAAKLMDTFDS
Description: • RET enzyme was purchased from Carna Company, and the article number was 08-159; • RET M918T enzyme was purchased from Carna Company, and the article number was 08-508; • KIF5B-RET was purchased from SignalChem Company, the article number was R02-19FG-05; • CCDC6-RET was purchased from SignalChem Company, the article number was R02-19BG-05; • RET V804M enzyme was purchased from Thermofisher Company, and the article number was PV6223; • RET V804L enzyme was purchased from Thermofisher Company, and the article number was PV4397; • HTRF KinEASE-TK kit was purchased from Cisbio Company, and the article number was 62TK0PEC; • ATP was purchased from Thermofisher Company, and the article number was PV3227; • 384-well plate was purchased from PerkinElmer Company, and the article number was 6007290.
In this experiment, the homogeneous time-resolved fluorescence (HTRF) method was used for the detection of compounds on RET kinase activity.

KDR kinase = target: T2, KDR kinase (Homo sapiens, UniProt P35968); assay: HTRF kinase assay, KDR; type: biochemical; settings: for IC50: HTRF, ATP at Km; for Ratio (KDR/RET): KDR IC50 / RET IC50
T2 construct: purchased Carna 08-191
T2 sequence (P35968 20-1356): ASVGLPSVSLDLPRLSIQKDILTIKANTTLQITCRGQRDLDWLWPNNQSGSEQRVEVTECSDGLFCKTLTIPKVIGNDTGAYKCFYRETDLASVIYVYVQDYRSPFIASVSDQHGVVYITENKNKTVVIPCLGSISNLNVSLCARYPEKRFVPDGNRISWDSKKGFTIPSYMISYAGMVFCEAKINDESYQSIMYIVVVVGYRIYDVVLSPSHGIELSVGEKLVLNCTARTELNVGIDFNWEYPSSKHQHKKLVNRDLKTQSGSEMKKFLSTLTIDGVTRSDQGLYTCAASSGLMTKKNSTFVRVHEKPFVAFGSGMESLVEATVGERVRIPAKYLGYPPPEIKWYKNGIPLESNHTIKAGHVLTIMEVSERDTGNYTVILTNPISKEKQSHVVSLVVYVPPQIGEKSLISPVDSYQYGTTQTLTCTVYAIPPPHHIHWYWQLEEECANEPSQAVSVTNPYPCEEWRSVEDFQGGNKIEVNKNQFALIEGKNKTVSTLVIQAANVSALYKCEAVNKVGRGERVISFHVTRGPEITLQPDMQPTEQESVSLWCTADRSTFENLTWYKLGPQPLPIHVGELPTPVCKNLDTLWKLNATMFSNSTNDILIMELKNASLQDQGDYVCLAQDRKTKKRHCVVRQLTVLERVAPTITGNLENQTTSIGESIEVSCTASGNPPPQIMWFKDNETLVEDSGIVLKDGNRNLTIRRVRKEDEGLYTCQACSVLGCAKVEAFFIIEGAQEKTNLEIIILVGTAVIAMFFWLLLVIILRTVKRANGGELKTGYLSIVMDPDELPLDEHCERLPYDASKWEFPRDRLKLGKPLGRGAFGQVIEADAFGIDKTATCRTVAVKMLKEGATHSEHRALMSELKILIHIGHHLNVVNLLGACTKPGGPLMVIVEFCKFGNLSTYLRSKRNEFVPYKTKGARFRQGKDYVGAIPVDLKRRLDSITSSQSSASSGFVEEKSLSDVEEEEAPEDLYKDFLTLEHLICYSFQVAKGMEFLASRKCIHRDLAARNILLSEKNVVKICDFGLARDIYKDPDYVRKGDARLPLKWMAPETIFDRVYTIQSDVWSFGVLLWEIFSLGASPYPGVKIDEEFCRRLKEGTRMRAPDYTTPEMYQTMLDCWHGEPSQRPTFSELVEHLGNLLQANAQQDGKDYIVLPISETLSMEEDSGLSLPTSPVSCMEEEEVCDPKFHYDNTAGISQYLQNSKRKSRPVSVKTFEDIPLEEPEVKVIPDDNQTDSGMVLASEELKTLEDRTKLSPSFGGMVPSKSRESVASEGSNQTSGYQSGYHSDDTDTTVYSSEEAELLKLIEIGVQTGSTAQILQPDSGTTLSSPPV
Description: • KDR kinase was purchased from Carna Company, and the article number was 08-191; • HTRF KinEASE-TK kit was purchased from Cisbio Company, and the article number was 62TK0PEC; • ATP was purchased from Thermofisher Company, and the article number was PV3227; • 384-well plate was purchased from PerkinElmer Company, and the article number was 6007290.
In this experiment, the homogeneous time-resolved fluorescence (HTRF) method was used for the detection of compounds on KDR kinase activity.

[3] = Balb/C mouse pharmacokinetics, oral; type: in vivo; settings: Balb/C mice, p.o., 5 mg/kg, plasma
Experimental: The pharmacokinetic behavior of the following compound embodiments, administered orally at a dose of 5 mg/kg in plasma in mice, was studied using Balb/C mice as test animals.
Balb/C Mouse 6/embodiment, male, Shanghai Jiesijie Laboratory Animal Co., Ltd, Animal Production License No. (SCXK (Shanghai) 2013-0006 N0.311620400001794).
Balb/C mice, males; p.o. after overnight fasting, respectively, at a dose of 5 mg/kg, administered in a volume of 10 mL/kg.
0.5% CMC-Na(1% Tween80) was dissolved by ultrasound, and prepared into clear solution or uniform suspension.
Before and after administration, 0.1 mL of blood was collected from mice at 0, 0.5, 1, 2, 4, 6, 8 and 24 hours by orbital collection, placed in EDTA-K2 tubes, centrifuged at 6000 rpm at 4° C. for 6 min to separate plasma, and stored at −80° C.
40 μL of plasma sample was precipitated by adding 160 μL of acetonitrile, mixed and centrifuged at 3500×g for 5-20 min.
100 μL of the supernatant solution after treatment was taken to analyze the concentration of the test compound by LC/MS/MS.
The main pharmacokinetic parameters were calculated using WinNonlin 6.1 and the results of the mouse pharmacokinetic experiments were shown in Table 8 below.

TT xenograft tumor = assay: Subcutaneous xenograft tumor model of human thyroid cancer cell TT; type: in vivo, BALB/c nude mice; settings: for Tumor inhibition rate TGI d 22 / Tumor volume (mm^3, mean ± SEM) d 22: oral BID 21 days; for Tumor volume (mm^3, mean ± SEM) d 0: oral BID
Experimental: TT cells were cultured in vitro in a monolayer under the following conditions: F-12K medium with 20% heat-inactivated fetal bovine serum and 1% penicillin-streptomycin double antibodies at 37° C. and 5% CO2. Trypsin-EDTA was used twice a week digestion for digestion treatment passaging. When cells were in an exponential growth period, cells were collected, counted and inoculated.
TT cells were collected when they were full in a logarithmic growth period, ensuring over 90% of vitality. 0.2 mL cell suspension containing about 1×10^7 of TT cells (cells suspended in basic F-12K medium and added with 50% Matrigel) was subcutaneously inoculated into the right back tumor of each mouse […].
• 1. The day of grouping was day 0 (DO). The interval of BID administration was 6-8 h/18-16 h. The first dose was given in the afternoon of day DO and the last dose was given in the morning of day D21. • 2. Dosing volume: […] according to the body weight of nude mice.
Animal grouping: Before administration, the animals were weighed and the tumor volume was measured. The mice were randomly grouped according to tumor volume (randomized grouping design) with 5 animals per group.
Experimental index: The diameter of tumor was measured by vernier caliper twice a week. The tumor volume was calculated by the formula: V=a×b^2/2, a and b denote the long and short diameter of the tumor, respectively. The tumor suppressive efficacy of the compounds was evaluated by TGI (%). TGI (%)=(1−(TVTreatment/Dx−TVTreatment/D1)/(TVControl/Dx−TVControl/D1))×[…].
T test was used for comparison between two groups. One-way ANOVA was used for comparison among three or more groups. If there were significant differences in F values, multiple comparisons should be made after ANOVA analysis. GraphPadPrism 5.0 was used for all data analysis.

| Molecule | IC50 (RET) [nM] | IC50 (KDR kinase) [nM] | Ratio (KDR/RET) (KDR kinase) | further results |
| --- | --- | --- | --- | --- |
| C#C[C@](C)(O)COc1cc(-c2ccc(N3CC4CC(C3)N4Cc3ccc(OC)nc3)nc2)c2c(C#N)cnn2c1 [Embodiment 153, 6-(((S)-2-hydroxy-2-methylbut-3-yn-1-yl)oxy)-4-(6-(6-((6-methoxypyridin-3-yl)methyl)-3,6-diazabicyclo[3.1.1]heptan-3-yl)pyridin-3-yl)pyrazolo[1,5-a]pyridine-3-carbonitrile] |  |  |  | inhibition of ERK phosphorylation ([1]; 11.1 nM, 2 hours at 37° C., TT cells): inhibit half of the ERK phosphorylation level; inhibition of the phosphorylation level of ERK in TT cells, overall [1]: significantly inhibit |
| COc1ccc(CN2C3CC2CN(c2ccc(-c4cc(OCC56CC(C#N)(C5)C6)cn5ncc(C#N)c45)cn2)C3)cn1 [Embodiment 138, 6-((3-Cyanobicyclo[1.1.1]pentan-1-yl)methoxy)-4-(6-(6-((6-methoxypyridin-3-yl)methyl)-3,6-diazabicyclo[3.1.1]heptan-3-yl)pyridin-3-yl)pyrazolo[1,5-a]pyridine-3-carbonitrile] |  |  |  | IC50 ([2]; 72 hours): 25.1 nM |
| Cc1ccc(F)cc1C(=O)NC1(C)CC2CN(c3ccc(-c4cc(OCC(C)(C)O)cn5ncc(C#N)c45)cn3)CC2C1 (stereo not drawn) [Embodiment 75, N-(2-(5-(3-cyano-6-(2-hydroxy-2-methylpropoxy)pyrazolo[1,5-a]pyridin-4-yl)pyridin-2-yl)-5-methyloctahydrocyclopenta[c]pyrrol-5-yl)-5-fluoro-2-methylbenzamide] | 3.6 | 124 | 35 |  |
| COc1ccc(CN2C3CC2CN(c2ccc(-c4cc(OCC(C)(C)C#N)cn5ncc(C#N)c45)cn2)C3)cn1 [Embodiment 34, 6-(2-Cyano-2-methylpropoxy)-4-(6-(6-((6-methoxypyridin-3-yl)methyl)-3,6-diazabicyclo[3.1.1]heptan-3-yl)pyridin-3-yl)pyrazolo[1,5-a]pyridine-3-carbonitrile] |  |  |  | Half-life t1/2 [3]: 4.2 h |
| 6-((1-Imino-1-hydroxy-1l6-thietan-3-yl)methoxy)-4-(6-(6-((6-methoxypyridin-3-yl)methyl)-3,6-diazabicyclo[3.1.1]heptan-3-yl)pyridin-3-yl)pyrazolo[1,5-a]pyridine-3-carbonitrile [Embodiment 85] | 1.3 | 69 | 55 |  |
| COc1ccc(OC2CCN(c3ccc(-c4cc(C#CC(C)(C)O)cn5ncc(C#N)c45)cn3)CC2)cn1 [Embodiment 32, 6-(3-Hydroxy-3-methylbut-1-yn-1-yl)-4-(6-(4-((6-methoxypyridin-3-yl)oxo)piperidin-1-yl)pyridin-3-yl)pyrazolo[1,5-a]pyridine-3-carbonitrile] | 1.22 | 1.6 | 1.3 |  |
| COc1ncc(CN2C3CC2CN(c2ccc(-c4cc(C#CC(C)(C)O)cn5ncc(C#N)c45)cn2)C3)cc1F [Embodiment 94, 4-(6-(6-((5-Fluoro-6-methoxypyridin-3-yl)methyl)-3,6-diazabicyclo[3.1.1]heptan-3-yl)pyridin-3-yl)-6-(3-hydroxy-3-methylbut-1-yn-1-yl)pyrazolo[1,5-a]pyridine-3-carbonitrile] |  |  |  | Tumor inhibition rate TGI d 22 (TT xenograft tumor; 30 mg/kg): 99.64%; Tumor volume (mm^3, mean ± SEM) d 22 (TT xenograft tumor; 30 mg/kg): 203.56 ± 31.74 mm^3; Tumor volume (mm^3, mean ± SEM) d 0 (TT xenograft tumor; 30 mg/kg): 199.73 ± 24.07 mm^3 |
| CC(C)(O)COc1cc(-c2ccc(N3CCC(N)(C(=O)N4CCc5ccccc54)CC3)nc2)c2c(C#N)cnn2c1 [Embodiment 62, 4-(6-(4-Amino-4-(indoline-1-carbonyl)piperidin-1-yl)pyridin-3-yl)-6-(2-hydroxy-2-methylpropoxy)pyrazolo[1,5-a]pyridine-3-carbonitrile] | 1.3 | 17 | 14 |  |
| C#C[C@@](C)(O)COc1cc(-c2ccc(N3CC4CC(C3)N4Cc3ccc(OC)nc3)nc2)c2c(C#N)cnn2c1 [Embodiment 152, 6-(((R)-2-hydroxy-2-methylbut-3-yn-1-yl)oxy)-4-(6-(6-((6-methoxypyridin-3-yl)methyl)-3,6-diazabicyclo[3.1.1]heptan-3-yl)pyridin-3-yl)pyrazolo[1,5-a]pyridine-3-carbonitrile] |  |  |  | inhibition of the phosphorylation level of ERK in TT cells, overall [1]: significantly inhibit |
| COc1ccc(CN2C3CC2CN(c2ccc(-c4cc(N5CC(C)(C#N)C5)cn5ncc(C#N)c45)cn2)C3)cn1 [Embodiment 168, 6-(3-Cyano-3-methylazetidin-1-yl)-4-(6-(6-((6-methoxypyridin-3-yl)methyl)-3,6-diazabicyclo[3.1.1]heptan-3-yl)pyridin-3-yl)pyrazolo[1,5-a]pyridine-3-carbonitrile] |  |  |  | Tumor inhibition rate TGI d 22 (TT xenograft tumor; 10 mg/kg): 129.77%; Tumor volume (mm^3, mean ± SEM) d 22 (TT xenograft tumor; 10 mg/kg): 144.14 ± 8.95 mm^3; Tumor volume (mm^3, mean ± SEM) d 0 (TT xenograft tumor; 10 mg/kg): 205.23 ± 16.57 mm^3 |
| COc1ccc(CN2C3CC2CN(c2ccc(-c4cc(/C=C/C(C)(C)O)cn5ncc(C#N)c45)cn2)C3)cn1 [Embodiment 127] | 0.26 | 6.5 | 25 | IC50 ([2]; Homo sapiens, TT, 72 h): 5.87 nM |
